Measured values reported in the supplement of paper PMC11061612.

Experiments:
MG-63 (Osteosarcoma) [1] = assay: Bliss excess, mean over the matrix (fraction); higher = more synergy
How it was run: (§1)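 After 24 hours at 37°C and 5% CO2 in 1536-well plates, cells in DMEM/F12 or RPMI plus 10% FBS received two-drug dose matrices for 72 hours. Viability came from CellTiter-Glo 2.0 luminescence and was scaled as inhibition, anchored at 0 by vehicle wells and at 1 by blank wells. Combination Emax is taken as the second-highest inhibition in the matrix, and Bliss excess as the observed combination effect less EA + EB − EA·EB, with EA and EB the single-agent effects.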

[2] = test system: NCI-H1435 (Non-Small Cell Lung Carcinoma); assay: as above
How it was run: as §1

[3] = test system: SW1463 (Colorectal Carcinoma); assay: as above
How it was run: as §1

[4] = test system: NCI-H2009 (Lung Adenocarcinoma); assay: as above
How it was run: as §1

[5] = test system: RPMI-8402 (T-Lymphoblastic Leukemia); assay: as above
How it was run: as §1

[6] = test system: NCI-H835 (Other Solid Carcinomas); assay: as above
How it was run: as §1

[7] = test system: L-363 (Plasma Cell Myeloma); assay: as above
How it was run: as §1

SK-MEL-24 (Melanoma) [8] = assay: as above
How it was run: as §1

[9] = test system: CAL-85-1 (Breast Carcinoma); assay: as above
How it was run: as §1

[10] = test system: SBC-3 (Small Cell Lung Carcinoma); assay: as above
How it was run: as §1

[11] = test system: NTERA-2-cl-D1 (Other Solid Carcinomas); assay: as above
How it was run: as §1

[12] = test system: COR-L105 (Lung Adenocarcinoma); assay: as above
How it was run: as §1

[13] = test system: KNS-62 (Squamous Cell Lung Carcinoma); assay: as above
How it was run: as §1

[14] = test system: NCI-H2023 (Non-Small Cell Lung Carcinoma); assay: as above
How it was run: as §1

C32 (Melanoma) [15] = assay: as above
How it was run: as §1

GCIY (Gastric Carcinoma) [16] = assay: as above
How it was run: as §1

A375 (Melanoma) [17] = assay: as above
How it was run: as §1

[18] = test system: OVKATE (Ovarian Carcinoma); assay: as above
How it was run: as §1

[19] = test system: MDA-MB-175-VII (Breast Carcinoma); assay: as above
How it was run: as §1

NCI-H2452 (Mesothelioma) [20] = assay: as above
How it was run: as §1

[21] = test system: NCI-H1648 (Lung Adenocarcinoma); assay: as above
How it was run: as §1

[22] = test system: BC-1 (B-Cell Non-Hodgkin's Lymphoma); assay: as above
How it was run: as §1

[23] = test system: MRK-nu-1 (Breast Carcinoma); assay: as above
How it was run: as §1

MG-63 (Osteosarcoma) [24] = assay: combination Emax (second highest fraction inhibited in the dose matrix, 72 h); higher = more inhibition; extreme values may be limits of the assay
How it was run: as §1

[25] = test system: NCI-H1435 (Non-Small Cell Lung Carcinoma); assay: as above
How it was run: as §1

[26] = test system: SW1463 (Colorectal Carcinoma); assay: as above
How it was run: as §1

[27] = test system: NCI-H2009 (Lung Adenocarcinoma); assay: as above
How it was run: as §1

[28] = test system: RPMI-8402 (T-Lymphoblastic Leukemia); assay: as above
How it was run: as §1

[29] = test system: NCI-H835 (Other Solid Carcinomas); assay: as above
How it was run: as §1

[30] = test system: L-363 (Plasma Cell Myeloma); assay: as above
How it was run: as §1

SK-MEL-24 (Melanoma) [31] = assay: as above
How it was run: as §1

[32] = test system: CAL-85-1 (Breast Carcinoma); assay: as above
How it was run: as §1

[33] = test system: SBC-3 (Small Cell Lung Carcinoma); assay: as above
How it was run: as §1

[34] = test system: NTERA-2-cl-D1 (Other Solid Carcinomas); assay: as above
How it was run: as §1

[35] = test system: COR-L105 (Lung Adenocarcinoma); assay: as above
How it was run: as §1

[36] = test system: KNS-62 (Squamous Cell Lung Carcinoma); assay: as above
How it was run: as §1

[37] = test system: NCI-H2023 (Non-Small Cell Lung Carcinoma); assay: as above
How it was run: as §1

C32 (Melanoma) [38] = assay: as above
How it was run: as §1

GCIY (Gastric Carcinoma) [39] = assay: as above
How it was run: as §1

A375 (Melanoma) [40] = assay: as above
How it was run: as §1

[41] = test system: OVKATE (Ovarian Carcinoma); assay: as above
How it was run: as §1

[42] = test system: MDA-MB-175-VII (Breast Carcinoma); assay: as above
How it was run: as §1

NCI-H2452 (Mesothelioma) [43] = assay: as above
How it was run: as §1

[44] = test system: NCI-H1648 (Lung Adenocarcinoma); assay: as above
How it was run: as §1

[45] = test system: BC-1 (B-Cell Non-Hodgkin's Lymphoma); assay: as above
How it was run: as §1

[46] = test system: MRK-nu-1 (Breast Carcinoma); assay: as above
How it was run: as §1
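Throughout, for Bliss excess, mean over the matrix: after 72 h of two-drug dosing.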

N#Cc1cnc(Nc2cc(NC[C@H]3CNCCO3)c(C(F)(F)F)cn2)cn1 [SRA737] + C=CCn1c(=O)c2cnc(Nc3ccc(N4CCN(C)CC4)cc3)nc2n1-c1cccc(C(C)(C)O)n1 [AZD1775] (first compound max 10 µM, partner max 1 µM)
Bliss excess (MG-63 (Osteosarcoma) [1]): 0.0974
Bliss excess [2]: 0.0093
Bliss excess [3]: 0.0027
Bliss excess [4]: -0.011
Bliss excess [5]: 0.0473
Bliss excess [6]: 0.01
Bliss excess [7]: 0.121
Bliss excess (SK-MEL-24 (Melanoma) [8]): -0.0375
Bliss excess [9]: -0.0283
Bliss excess [10]: 0.155
Bliss excess [11]: 0.0209
Bliss excess [12]: 0.031
Bliss excess [13]: 0.0171
Bliss excess [14]: 0.0404
Bliss excess (C32 (Melanoma) [15]): 0.0397
Bliss excess (GCIY (Gastric Carcinoma) [16]): 0.033
Bliss excess (A375 (Melanoma) [17]): 0.0455
Bliss excess [18]: -0.0409
Bliss excess [19]: -0.0073
Bliss excess (NCI-H2452 (Mesothelioma) [20]): -0.0018
Bliss excess [21]: -0.0116
Bliss excess [22]: 0.099
Bliss excess [23]: 0.0988
combination Emax (MG-63 (Osteosarcoma) [24]): 0.867
combination Emax [25]: 0.267
combination Emax [26]: 0.629
combination Emax [27]: 0.82
combination Emax [28]: 1
combination Emax [29]: 0.546
combination Emax [30]: 0.937
combination Emax (SK-MEL-24 (Melanoma) [31]): 0.46
combination Emax [32]: 0.476
combination Emax [33]: 0.86
combination Emax [34]: 0.483
combination Emax [35]: 0.383
combination Emax [36]: 0.53
combination Emax [37]: 0.594
combination Emax (C32 (Melanoma) [38]): 0.581
combination Emax (GCIY (Gastric Carcinoma) [39]): 0.611
combination Emax (A375 (Melanoma) [40]): 0.615
combination Emax [41]: 0.222
combination Emax [42]: 0.276
combination Emax (NCI-H2452 (Mesothelioma) [43]): 0.722
combination Emax [44]: 0.621
combination Emax [45]: 0.988
combination Emax [46]: 0.724

N#Cc1cnc(Nc2cc(NC[C@H]3CNCCO3)c(C(F)(F)F)cn2)cn1 [SRA737] + O=c1[nH]cc(F)c(=O)[nH]1 [5-Fluorouracil] (first compound max 10 µM, 7x7, partner max 20 µM)
Bliss excess (MG-63 (Osteosarcoma) [1]): 0.0106
Bliss excess [2]: -0.0012
Bliss excess [3]: -0.0006
Bliss excess [4]: 0.0125
Bliss excess [5]: -0.0445
Bliss excess [6]: 0.0621
Bliss excess [7]: 0.0691
Bliss excess (SK-MEL-24 (Melanoma) [8]): -0.0047
Bliss excess [9]: 0.0703
Bliss excess [10]: -0.0447
Bliss excess [11]: -0.0757
Bliss excess [12]: -0.0048
Bliss excess [13]: 0.0235
Bliss excess [14]: 0.0353
Bliss excess (C32 (Melanoma) [15]): -0.0343
Bliss excess (GCIY (Gastric Carcinoma) [16]): -0.0044
Bliss excess (A375 (Melanoma) [17]): -0.0149
Bliss excess [18]: -0.0286
Bliss excess [19]: -0.0189
Bliss excess (NCI-H2452 (Mesothelioma) [20]): 0.0571
Bliss excess [21]: -0.0515
Bliss excess [22]: -0.001
Bliss excess [23]: 0.0291
combination Emax (MG-63 (Osteosarcoma) [24]): 0.492
combination Emax [25]: 0.164
combination Emax [26]: 0.402
combination Emax [27]: 0.444
combination Emax [28]: 1
combination Emax [29]: 0.391
combination Emax [30]: 0.934
combination Emax (SK-MEL-24 (Melanoma) [31]): 0.314
combination Emax [32]: 0.555
combination Emax [33]: 0.66
combination Emax [34]: 0.464
combination Emax [35]: 0.234
combination Emax [36]: 0.382
combination Emax [37]: 0.689
combination Emax (C32 (Melanoma) [38]): 0.15
combination Emax (GCIY (Gastric Carcinoma) [39]): 0.505
combination Emax (A375 (Melanoma) [40]): 0.226
combination Emax [41]: 0.147
combination Emax [42]: 0.21
combination Emax (NCI-H2452 (Mesothelioma) [43]): 0.513
combination Emax [44]: 0.208
combination Emax [45]: 0.739
combination Emax [46]: 0.443
